Measurements published in ChEMBL document CHEMBL1201862, “PubChem BioAssay data set” (2004).
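Each compound was tested at five concentrations against cells in 96-well plates for 48 hours. GI50 = concentration required for 50% inhibition of growth.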 Active and inactive are the calls of the source. No stated cut-off is given here; in the data, active = GI50 up to about 1.1 µM and inactive = higher.

Legend:
Test in all cases: DTP human tumour cell line panel, 48 h
HOP-62 = test system: HOP-62
CCRF-CEM = test system: CCRF-CEM
HCT-116 = test system: HCT-116
786-0 = test system: 786-0
SF-268 = test system: SF-268
MOLT-4 = test system: MOLT-4
TK-10 = test system: TK-10
RXF 393 = test system: RXF 393
UACC-257 = test system: UACC-257
SF-295 = test system: SF-295
UO-31 = test system: UO-31
HCT-15 = test system: HCT-15
HL-60 = test system: HL-60
SK-MEL-28 = test system: SK-MEL-28
A498 = test system: A498
SN12C = test system: SN12C
ACHN = test system: ACHN
OVCAR-4 = test system: OVCAR-4
NCI-H226 = test system: NCI-H226

SMILES	GI50 (HOP-62)	GI50 (CCRF-CEM)	GI50 (HCT-116)	GI50 (786-0)	GI50 (SF-268)	GI50 (MOLT-4)	GI50 (TK-10)	GI50 (RXF 393)	GI50 (UACC-257)	GI50 (SF-295)	GI50 (UO-31)	GI50 (HCT-15)	GI50 (HL-60)	GI50 (SK-MEL-28)	GI50 (A498)	GI50 (SN12C)	GI50 (ACHN)	GI50 (OVCAR-4)	GI50 (NCI-H226)
Cc1cc(S(=O)(=O)Nc2nc3ccccc3[nH]2)c(S)cc1Cl	39.4 µM (inactive)	26.6 µM (inactive)	22.4 µM (inactive)	46.5 µM (inactive)	64.7 µM (inactive)	30.4 µM (inactive)	> 100 µM (inactive)	> 100 µM (inactive)	> 100 µM (inactive)	53.1 µM (inactive)	> 100 µM (inactive)	> 100 µM	35.5 µM (inactive)	27.4 µM (inactive)	> 100 µM (inactive)	> 100 µM (inactive)	71.9 µM (inactive)	61.4 µM (inactive)	
COc1ccc2c(n1)Sc1nc3ccccc3nc1N2	16.1 µM (inactive)	29.4 µM (inactive)	33.7 µM (inactive)	26.8 µM (inactive)	58.5 µM (inactive)	13.8 µM (inactive)	15.6 µM (inactive)	32.2 µM (inactive)	> 100 µM (inactive)	26.7 µM (inactive)	20 µM (inactive)	24.9 µM		> 100 µM (inactive)	> 100 µM (inactive)	21 µM (inactive)	23.2 µM (inactive)	67.3 µM (inactive)	10.7 µM (inactive)
CCOP(=O)(Nc1ccc(-c2ccc(N)cc2)cc1)OCC	89.5 µM (inactive)		99.8 µM (inactive)	> 100 µM (inactive)	> 100 µM (inactive)	> 100 µM (inactive)	> 100 µM (inactive)	35.2 µM (inactive)	> 100 µM (inactive)	84.5 µM (inactive)	> 100 µM (inactive)	> 100 µM		> 100 µM (inactive)	> 100 µM (inactive)		> 100 µM (inactive)	> 100 µM (inactive)	
COC(=O)C1=C(C(=O)OC)C23CC4CCC2(C(=O)C1O3)C4(C)C (stereo not given)		22.1 µM (inactive)	51.8 µM (inactive)	> 100 µM (inactive)	94.4 µM (inactive)	30.4 µM (inactive)	> 100 µM (inactive)	58.5 µM (inactive)	> 100 µM (inactive)	95.1 µM (inactive)	> 100 µM (inactive)	> 100 µM	21.2 µM (inactive)	> 100 µM (inactive)	> 100 µM (inactive)	> 100 µM (inactive)	> 100 µM (inactive)	> 100 µM (inactive)	> 100 µM (inactive)
CCOC(=O)c1cc2c(OC)cc(OC)cc2oc1=O	65.3 µM (inactive)	> 100 µM (inactive)	> 100 µM (inactive)	52.5 µM (inactive)	42.3 µM (inactive)	> 100 µM (inactive)	> 100 µM (inactive)	57.3 µM (inactive)	> 100 µM (inactive)	50 µM (inactive)		> 100 µM	> 100 µM (inactive)	> 100 µM (inactive)	> 100 µM (inactive)	> 100 µM (inactive)	> 100 µM (inactive)	> 100 µM (inactive)	> 100 µM (inactive)
COc1cc2ccc1OCc1cccc(n1)COc1ccc(cc1OC)/C=N\CCNCCNCC/N=C\2	> 100 µM (inactive)	> 100 µM (inactive)	> 100 µM (inactive)	> 100 µM (inactive)	> 100 µM (inactive)	46.5 µM (inactive)	> 100 µM (inactive)	> 100 µM (inactive)	> 100 µM (inactive)		> 100 µM (inactive)	> 100 µM	53.5 µM (inactive)		> 100 µM (inactive)	> 100 µM (inactive)	> 100 µM (inactive)	> 100 µM (inactive)	> 100 µM (inactive)
C#C[C@@H](OC(=O)c1ccc([N+](=O)[O-])cc1)[C@@H]1C[C@H]2O[C@@H]([C@H](C/C=C/CC)OC(=O)c3ccc([N+](=O)[O-])cc3)C[C@H]2O1	> 100 µM (inactive)	> 100 µM (inactive)	> 100 µM (inactive)	> 100 µM (inactive)	> 100 µM (inactive)	> 100 µM (inactive)	> 100 µM (inactive)	> 100 µM (inactive)	> 100 µM (inactive)	> 100 µM (inactive)	> 100 µM (inactive)	> 100 µM		> 100 µM (inactive)	> 100 µM (inactive)	> 100 µM (inactive)	> 100 µM (inactive)	> 100 µM (inactive)	> 100 µM (inactive)
Cc1ccc(S(=O)(=O)N/N=C/c2oc(-c3cccc([N+](=O)[O-])c3)c(-c3cccc([N+](=O)[O-])c3)c2[N+](=O)[O-])cc1		19.5 µM (inactive)	32.4 µM (inactive)	60.7 µM (inactive)	21.2 µM (inactive)	25.8 µM (inactive)	> 100 µM (inactive)	27 µM (inactive)	64.7 µM (inactive)	49.8 µM (inactive)	16.3 µM (inactive)	62.2 µM	25.4 µM (inactive)	51.6 µM (inactive)	> 100 µM (inactive)	61.4 µM (inactive)	45.8 µM (inactive)	> 100 µM (inactive)	> 100 µM (inactive)
NC(CC1=CS(=O)(=O)c2ccc(Cl)cc21)C(=O)O (stereo not given)	> 100 µM (inactive)		> 100 µM (inactive)	> 100 µM (inactive)	> 100 µM (inactive)	> 100 µM (inactive)	> 100 µM (inactive)	> 100 µM (inactive)	54.7 µM (inactive)	83.6 µM (inactive)		> 100 µM		> 100 µM (inactive)	> 100 µM (inactive)	> 100 µM (inactive)	> 100 µM (inactive)	> 100 µM (inactive)	> 100 µM (inactive)
COc1ccc(N2C(=O)CC(Cl)C2=O)cc1 (stereo not given)	> 100 µM (inactive)		18.2 µM (inactive)	17.7 µM (inactive)	> 100 µM (inactive)		18.8 µM (inactive)	20 µM (inactive)	16.1 µM (inactive)		18.7 µM (inactive)	17.5 µM		16.6 µM (inactive)	> 100 µM (inactive)	17.5 µM (inactive)	17.9 µM (inactive)	19.1 µM (inactive)	20.5 µM (inactive)
CC[C@@H]1CN2CCC1C[C@@H]2C(O)c1ccnc2ccc(OCCN3CCN(CCOc4ccc5nccc(C(O)[C@@H]6C[C@@H]7CCN6C[C@@H]7CC)c5c4)CC3)cc12 (stereo not given in full)	18.5 µM (inactive)	4.45 µM (inactive)	14.2 µM (inactive)	13.4 µM (inactive)	18.4 µM (inactive)	6.53 µM (inactive)	14.4 µM (inactive)	16.5 µM (inactive)	16.1 µM (inactive)	16.3 µM (inactive)		24.2 µM	21.9 µM (inactive)	17.1 µM (inactive)	20.2 µM (inactive)	14.3 µM (inactive)	15.1 µM (inactive)	19.8 µM (inactive)	
NCCN1C(=O)c2cc(Cl)c(Cl)cc2C1(O)c1ccc(Cl)cc1 (stereo not given)	1.85 µM (inactive)	3.61 µM (inactive)	1.72 µM (inactive)	1.61 µM (inactive)	2.32 µM (inactive)	2.05 µM (inactive)	1.92 µM (inactive)	1.59 µM (inactive)	1.87 µM (inactive)	2.01 µM (inactive)	4.86 µM (inactive)	2.4 µM	1.67 µM (inactive)	1.75 µM (inactive)	2.92 µM (inactive)	3.72 µM (inactive)	2.19 µM (inactive)	1.76 µM (inactive)	
C/C(=N\Nc1nc2ccccc2s1)c1cccc[n+]1[O-]	48.3 µM (inactive)	25.2 µM (inactive)	7.55 µM (inactive)	47.1 µM (inactive)	36.2 µM (inactive)	1.81 µM (inactive)	17 µM (inactive)	66.2 µM (inactive)	40.1 µM (inactive)	0.594 µM (active)	20 µM (inactive)	34.2 µM		> 100 µM (inactive)	> 100 µM (inactive)	48.9 µM (inactive)	37.1 µM (inactive)	86.3 µM (inactive)	55.2 µM (inactive)
COC(=O)C1CCC(=S)N1C(=O)OCc1ccccc1 (stereo not given)	> 100 µM (inactive)	3.61 µM (inactive)	83.9 µM (inactive)	> 100 µM (inactive)	98.6 µM (inactive)	> 100 µM (inactive)	> 100 µM (inactive)	28.4 µM (inactive)	66.4 µM (inactive)	78 µM (inactive)	95.7 µM (inactive)	92.7 µM		> 100 µM (inactive)	> 100 µM (inactive)		> 100 µM (inactive)	> 100 µM (inactive)	
O=C1NC2=NN=C(c3ccc(Br)cc3)CN2NC12c1ccccc1-c1ccccc12	> 100 µM (inactive)	3.05 µM (inactive)	> 100 µM (inactive)	> 100 µM (inactive)	> 100 µM (inactive)		> 100 µM (inactive)	> 100 µM (inactive)	> 100 µM (inactive)	> 100 µM (inactive)	> 100 µM (inactive)	> 100 µM		> 100 µM (inactive)	> 100 µM (inactive)	> 100 µM (inactive)	> 100 µM (inactive)	> 100 µM (inactive)	> 100 µM (inactive)
Cc1ccccc1/N=N/c1ccc(/N=N/c2c(O)ccc3ccccc23)c(C)c1 [SCARLET RED]	38 µM (inactive)	> 10 µM (inactive)	> 100 µM (inactive)	> 100 µM (inactive)	70.3 µM (inactive)	> 100 µM (inactive)	> 100 µM (inactive)	> 100 µM (inactive)	> 100 µM (inactive)	56.8 µM (inactive)	> 100 µM (inactive)	> 100 µM		> 100 µM (inactive)	> 100 µM (inactive)	> 100 µM (inactive)	> 100 µM (inactive)	> 100 µM (inactive)	> 100 µM (inactive)
